Reference: patent publication EP3760185A1, “COSMETIC COMPOSITION TO PREVENT AND DELAY SKIN AGING” (Riccio, Rodolfo, priority 2019, dated 2021)

Tested on: actin
Experiment: polymerization of actin (in vitro test)
Type: cell-based
Details: compared to control
From the text: Typically, the selected or purified maltodextrins described herein have the following properties: • a moisturizing and gelling (film-forming) action; • a stimulating action of fibroblasts and keratinocytes proliferation, responsible for the formation of granulation tissue and producers of collagen, elastin, proteoglycans, and other glycoproteins that intervene in the tissue regeneration phase • a skin regenerating action, found with representative in vitro tests such as synthesis of fibronectin, polymerization of actin, expression of enzymes such as Hyaluronan Synthase-2 • a skin protective action following the formation of an epidermal barrier

With phosphatidic acid [PA] the “polymerization of actin increase” value was 100%.
